“Also recorded” adds a separate entry of the source.
Legend:
[1] = Relative stability of the crystal forms; type: physicochemical; conditions: four kinds of crystals excluding the solvate
[2] = Solubility of the crystal forms in the solvent; type: physicochemical; conditions: qualitative, solvent not given
[3] = Storage stability of the crystal forms; type: physicochemical; conditions: qualitative
[4] = Absorptivity of the crystal forms; conditions: qualitative

Row | SMILES | storage stability [3] | absorptivity [4] | solubility in the solvent ([2]; hydrate) | stability (rank order of crystal forms) [1] | solubility in the solvent [2]
1 | Cc1cccc2scc(Cn3c(SCCCC(=O)O)nc4ccccc43)c12 [crystal A, 4-(1-((4-methylbenzothiophen-3-yl)methyl)benzimidazol-2-ylthio)butanoic acid] | excellent | comparatively excellent |  | becomes lower in the order of crystal D, crystal B, crystal A and crystal E | becomes higher in this order; also recorded: excellent
2 | Cc1cccc2scc(Cn3c(SCCCC(=O)O)nc4ccccc43)c12 [crystal B, 4-(1-((4-methylbenzothiophen-3-yl)methyl)benzimidazol-2-ylthio)butanoic acid] | excellent |  |  | becomes lower in the order of crystal D, crystal B, crystal A and crystal E | becomes higher in this order
3 | Cc1cccc2scc(Cn3c(SCCCC(=O)O)nc4ccccc43)c12 [crystal D, 4-(1-((4-methylbenzothiophen-3-yl)methyl)benzimidazol-2-ylthio)butanoic acid] | excellent |  |  | becomes lower in the order of crystal D, crystal B, crystal A and crystal E | becomes higher in this order; also recorded: drastically poor

Continued, in another order:

Row | storage stability [3] | absorptivity [4] | solubility in the solvent ([2]; hydrate) | SMILES | stability (rank order of crystal forms) [1] | solubility in the solvent [2]
4 | excellent | comparatively excellent |  | Cc1cccc2scc(Cn3c(SCCCC(=O)O)nc4ccccc43)c12 [crystal E, 4-(1-((4-methylbenzothiophen-3-yl)methyl)benzimidazol-2-ylthio)butanoic acid] | becomes lower in the order of crystal D, crystal B, crystal A and crystal E | becomes higher in this order; also recorded: excellent
5 | excellent | comparatively excellent | excellent | Cc1cccc2scc(Cn3c(SCCCC(=O)O)nc4ccccc43)c12 [hydrate crystal, 4-(1-((4-methylbenzothiophen-3-yl)methyl)benzimidazol-2-ylthio)butanoic acid hydrate] |  | 

From patent US7649008B2, “Crystal of benzimidazole derivative and process for producing the same” (priority 2003, dated 2010)
